Experimental data as given in patent publication US20220142967A1, “Methods and Compositions for the Treatment of Multiple Sclerosis” (SYMBIONYX PHARMACEUTICALS INC, priority 2018, published 2022).
Where a name gives a salt, the structure may show the parent alone.

Tests used:
[1] = test system: NFE2L2 (NRF2) binding sites; experiment: Enrichment of NFE2L2 (NRF2) and other binding sites upstream of IDMF-regulated genes; format: cell-based, human
Procedure: RNA sample processing and microarray hybridizations were performed using the Affymetrix Human Genome U133 Plus 2.0 array platform. DNA microarray samples evaluated included IDMF- and vehicle-treated KCs (n=2 replicates per group). Samples were normalized using the robust multichip average (RMA) algorithm. Identification of probe sets with detectable expression was performed using the MAS 5.0 method, which identifies probe sets with above-background expression based upon the Wilcoxon signed rank test. To limit redundancy in downstream analyses, a single probe set was chosen to represent each protein-coding human gene featured on the microarray platform. This representative was chosen as the probe set with highest expression for each protein-coding human gene. These probe sets were then additionally filtered to include only those with detectable expression in at least 1 of the 4 samples (P<0.05, Wilcoxon signed rank test). Overall, this yielded a total of 12330 protein-coding genes that were included in analyses, with each gene represented by a single representative probe set. Bayesian linear models and moderated t-statistics were then used to evaluate differential expression for each of the 12330 genes (IDMF vs. CTL treatment; R package: limma). To control the false discovery rate (FDR), raw p-values generated from linear model analyses were adjusted using the Benjamini-Hochberg method.
As noted in the background section above, the transcription factor nuclear factor (erythroid-derived 2)-like 2 (NFE2L2/NRF2) has previously been associated with multiple sclerosis. In this study, IDMF-regulated genes were evaluated to determine the extent to which IDMF led to the enrichment of NFE2L2/NRF2 binding sites in promoter-proximal regions. For these analyses, a NFE2L2/NRF2 binding site was obtained from the JASPAR database (JASPAR ID: MA0150). This binding site partially matches the consensus sequence 5-[A/G]TGAC—AGCA-3: additional information can be obtained from http://jaspar.genereg.net/cgi-bin/jaspar_db.pl?ID=MA0150.1&rm=present&collection=CORE. Tests for enrichment were performed by scanning regions 1 kb, 2 kb or 5 kb upstream of protein-coding genes, including either all sequence (conserved=No) or only sequences conserved among mammalian species (conserved=Yes). A positive Z statistic indicates a trend towards increased NFE2L2 (NRF2) binding sites in sequences upstream of IDMF-increased […] (DEGs), as compared to all other expressed genes). P-values indicate the significance of the reported Z statistic (semiparametric generalized additive logistic models). Predicted targets include IDMF-increased DEGs with the NFE2L2 (NRF2) binding site identified within the scanned upstream region.

[2] = test system: cytokine-treated neonatal human epidermal keratinocytes (HEK); experiment: qPCR of pro-inflammatory and antioxidant genes in cytokine-treated keratinocytes; format: cell-based; conditions: 4 μg/ml, 24 h, IL-17A/IL-22/TNFα treated HEK
Procedure: A separate assay study was conducted on cytokine-treated neonatal human epidermal keratinocytes (HEK) looking at the expression impact of IDMF and dimethyfumarate (DMF) on key pro-inflammatory and antioxidant genes. In preparation for the assay, HEK (p2; Cell Applications, San Diego) were cultured at optimal conditions [keratinocyte growth medium supplemented with KGM-Gold Bullet kit (Lonza, Switzerland)] to form a segmented monolayer. A cytokine mix of IL-17A/IL-22/TNFα (100 ng/ml; 100 ng/ml; 10 ng/ml; Antigenix, Huntington Station, N.Y.) was added and the cell cultures incubated for 24 h. […] Thereafter, each test material was added to the cultures at 4 μg/ml (final concentration) in triplicate and the cultures incubated for a further 24 hours.
After the 24-hour incubation with the test materials, the cells were observed through a Nikon Eclipse TS100 inverted microscope. No gross morphological changes were recorded. RNA was then extracted and purified with NucleoSpin RNA II kit from Machery-Nagel, Bethlehem, Pa., using QiaCube robotic station (Qiagen, Valencia, Calif.). Purified total RNA was assessed at 260 nm and 280 nm with NanoDrop Lite (Thermo Fisher Scientific, Waltham, Mass.), pure samples with A260A/280 and A260/A230 ratios of >1.7 were standardized and the expression of the genes of interest (Table 3) was measured by real-time quantitative PCR with BioRad iCycler iQ Detection System using custom-made PCR arrays (Qiagen, Valencia, Calif.; part #24caph12190), 5×All-In-One 1st Strand cDNA Synthesis Mix (Bioland Scientific, Paramount, Calif.) and 2×qPCR Master Mix (Bioland). Efficiency ΔΔCt method was used for quantification of results, after the normalization of gene expression to GAPDH/PPIA housekeeping gene. Genes were considered differentially expressed if the level of expression was reasonably high (less than 30 cycles to detect) and the modulation was >1.7. […] Even assuming IDMF fully metabolizes to MMF, there is still considerably more MMF from DMF as opposed to the same amount, based on weight, of IDMF.

human fetal astrocytes = experiment: A1 v A2 marker activation, RNA-seq of H2O2-stimulated astrocytes; format: cell-based; conditions: 2.5 μM, 24 hrs, H2O2 (50 μM) stimulated
Procedure: The treated cells were stimulated with H2O2 (50 μM) for 20 min and the RNA extracted 1 day later and sequenced using the Illumina HiSeq 2000 with an average of 39.3 million reads per sample. Reads were mapped to the GHch38/hg38 genome. 13,968 protein-coding genes had detectable expression on average among the 6 samples. Differentially expressed genes (DEGs) were identified using negative binomial models with FDR threshold of <0.10 and fold change (FC) criteria (FC>1.30 or FC<0.77). Gene set enrichment testing was performed using public database annotations. Motif enrichment with respect to DEG up-stream regions was characterized using semiparametric generalized additive logistics models. The overlap between the identified DEGs and MS-associated genes, i.e., genes from MS patients and genes linked to inflammatory (A1) and ischemic (A2) astrogliosis.

enrichment of NF-kappaB binding sites upstream of IDMF-decreased genes ([1]; FDR<0.10 with FC<0.67, P=1.16E-08): strongly enriched
Structure (SMILES): COC(=O)/C=C/C(=O)O[C@H]1CO[C@H]2[C@@H]1OC[C@H]2OC(=O)/C=C/C(=O)OC [IDMF, isosorbide di-(methyl fumarate)]
Z Statistic, enrichment of NFE2L2 (NRF2) binding sites upstream of IDMF-increased DEGs ([1]; Region 1 kb, Conserved No): 4.74 | Z Statistic, enrichment of NFE2L2 (NRF2) binding sites upstream of IDMF-increased DEGs ([1]; Region 1 kb, Conserved Yes): 5.91 | Z Statistic, enrichment of NFE2L2 (NRF2) binding sites upstream of IDMF-increased DEGs ([1]; Region 2 kb, Conserved No): 3.37 | Z Statistic, enrichment of NFE2L2 (NRF2) binding sites upstream of IDMF-increased DEGs ([1]; Region 2 kb, Conserved Yes): 3.21 | Z Statistic, enrichment of NFE2L2 (NRF2) binding sites upstream of IDMF-increased DEGs ([1]; Region 5 kb, Conserved No): 2.11 | Z Statistic, enrichment of NFE2L2 (NRF2) binding sites upstream of IDMF-increased DEGs ([1]; Region 5 kb, Conserved Yes): 1.05 | CXCL3 fold change [2]: −1.1 fold | IL8 fold change [2]: 1.4 fold | NFE2L2 fold change [2]: 2.6 fold | PTGS2 fold change [2]: 1.2 fold | ICAM1 expression (human fetal astrocytes): downregulate | expression of genes linked to A2-polarization (human fetal astrocytes): tended to increase the expression | expression of genes linked to pan-reactive gliosis (human fetal astrocytes): decreasing
